Assay results reported in patent US9981975B2, “Pyrrolotriazine compounds as tam inhibitors” (Incyte Corporation, priority 2016, dated 2018).

How the values were obtained:
Format in all cases: biochemical
phosphor-Axl = phosphor-Axl (Homo sapiens (Human), UniProt P30530); test: TAM Enzymatic Assay (HTRF), Axl; settings: recombinant autophosphorylated Axl, 60 min, room temperature
c-Mer = c-Mer (Homo sapiens (Human), UniProt Q12866); test: TAM Enzymatic Assay (HTRF), Mer; settings: 60 min, room temperature
Method: The kinase assay buffer contained 50 mM HEPES, pH7.5, 10 mM MgCl2, 1 mM EGTA, 0.01% NP-40 and 2 mM DTT. 0.1 ul test compounds dissolved in DMSO were transferred from compound plates to white 384-well assay plates (Greiner […] plates). […] 4 ul enzyme solution (or assay buffer for the enzyme blank) was added to the appropriate wells in each plate, and then 4 ul/well substrate solution was added to initiate the reaction. The plate was protected from light and incubated at room temperature for 60 min. […] The plate was incubated for 1 h at room temperature, and HTRF (homogenous time resolved fluorescence) signal was measured on a PHERAstar FS plate reader (BMG labtech). Percentage of inhibition was calculated for each concentration and IC50 value was generated from curve fitting with GraphPad Prism software.

Tyro3 = Tyro3 (Homo sapiens (Human), UniProt Q06418); test: TAM Enzymatic Assay (HTRF), Tyro3; settings: Tyro3, 60 min, room temperature
Outline: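 HTRF kinase assay in 50 mM HEPES pH 7.5, 10 mM MgCl2, 1 mM EGTA, 0.01% NP-40, 2 mM DTT; compound in DMSO pre-dispensed, enzyme added, reaction started with substrate, 60 min at room temperature in the dark.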

Sequence of Tyro3 (Q06418 41-890): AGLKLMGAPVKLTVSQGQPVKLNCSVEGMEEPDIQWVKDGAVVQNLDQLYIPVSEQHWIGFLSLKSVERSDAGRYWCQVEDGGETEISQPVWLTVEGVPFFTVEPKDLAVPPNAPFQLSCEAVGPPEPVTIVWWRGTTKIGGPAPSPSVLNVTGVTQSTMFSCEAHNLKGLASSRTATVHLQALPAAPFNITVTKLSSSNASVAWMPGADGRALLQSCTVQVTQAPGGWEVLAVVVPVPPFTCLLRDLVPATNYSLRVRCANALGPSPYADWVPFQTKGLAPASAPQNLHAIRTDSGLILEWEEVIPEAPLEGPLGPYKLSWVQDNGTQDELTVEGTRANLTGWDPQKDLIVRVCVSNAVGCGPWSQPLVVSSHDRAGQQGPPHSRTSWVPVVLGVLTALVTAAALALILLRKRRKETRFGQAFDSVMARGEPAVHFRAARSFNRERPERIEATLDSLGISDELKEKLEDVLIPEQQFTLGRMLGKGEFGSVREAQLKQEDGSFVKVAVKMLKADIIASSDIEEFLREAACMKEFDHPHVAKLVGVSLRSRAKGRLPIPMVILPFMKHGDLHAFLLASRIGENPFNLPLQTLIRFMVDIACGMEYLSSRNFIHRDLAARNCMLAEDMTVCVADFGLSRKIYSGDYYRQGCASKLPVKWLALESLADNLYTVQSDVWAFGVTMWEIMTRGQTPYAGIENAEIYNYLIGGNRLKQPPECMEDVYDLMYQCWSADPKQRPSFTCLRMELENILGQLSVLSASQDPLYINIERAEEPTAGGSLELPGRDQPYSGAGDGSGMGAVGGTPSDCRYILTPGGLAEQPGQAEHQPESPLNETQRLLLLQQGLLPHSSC
Sequence of phosphor-Axl (P30530 26-894): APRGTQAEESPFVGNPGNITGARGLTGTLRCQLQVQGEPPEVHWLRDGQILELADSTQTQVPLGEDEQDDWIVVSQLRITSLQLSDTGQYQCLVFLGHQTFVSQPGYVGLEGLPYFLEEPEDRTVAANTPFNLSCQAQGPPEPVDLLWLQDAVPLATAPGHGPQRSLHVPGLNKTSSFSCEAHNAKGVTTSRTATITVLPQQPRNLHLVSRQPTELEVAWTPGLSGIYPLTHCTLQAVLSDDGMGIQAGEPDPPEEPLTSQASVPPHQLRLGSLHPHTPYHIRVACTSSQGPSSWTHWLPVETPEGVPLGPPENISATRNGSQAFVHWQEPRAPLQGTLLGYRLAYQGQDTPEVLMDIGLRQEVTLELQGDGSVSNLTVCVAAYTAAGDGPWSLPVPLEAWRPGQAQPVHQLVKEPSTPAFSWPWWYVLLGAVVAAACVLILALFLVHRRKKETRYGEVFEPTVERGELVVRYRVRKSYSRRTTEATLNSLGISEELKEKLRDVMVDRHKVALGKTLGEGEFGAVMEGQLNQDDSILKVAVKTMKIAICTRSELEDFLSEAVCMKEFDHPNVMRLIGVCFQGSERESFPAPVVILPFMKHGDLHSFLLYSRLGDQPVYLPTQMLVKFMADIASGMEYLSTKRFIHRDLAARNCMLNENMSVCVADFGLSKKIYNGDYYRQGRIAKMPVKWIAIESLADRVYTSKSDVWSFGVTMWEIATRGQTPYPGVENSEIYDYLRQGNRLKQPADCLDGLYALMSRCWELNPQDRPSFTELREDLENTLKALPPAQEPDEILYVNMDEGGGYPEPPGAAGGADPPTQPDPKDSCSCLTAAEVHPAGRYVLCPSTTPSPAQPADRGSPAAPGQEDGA
Sequence of c-Mer (Q12866 21-999): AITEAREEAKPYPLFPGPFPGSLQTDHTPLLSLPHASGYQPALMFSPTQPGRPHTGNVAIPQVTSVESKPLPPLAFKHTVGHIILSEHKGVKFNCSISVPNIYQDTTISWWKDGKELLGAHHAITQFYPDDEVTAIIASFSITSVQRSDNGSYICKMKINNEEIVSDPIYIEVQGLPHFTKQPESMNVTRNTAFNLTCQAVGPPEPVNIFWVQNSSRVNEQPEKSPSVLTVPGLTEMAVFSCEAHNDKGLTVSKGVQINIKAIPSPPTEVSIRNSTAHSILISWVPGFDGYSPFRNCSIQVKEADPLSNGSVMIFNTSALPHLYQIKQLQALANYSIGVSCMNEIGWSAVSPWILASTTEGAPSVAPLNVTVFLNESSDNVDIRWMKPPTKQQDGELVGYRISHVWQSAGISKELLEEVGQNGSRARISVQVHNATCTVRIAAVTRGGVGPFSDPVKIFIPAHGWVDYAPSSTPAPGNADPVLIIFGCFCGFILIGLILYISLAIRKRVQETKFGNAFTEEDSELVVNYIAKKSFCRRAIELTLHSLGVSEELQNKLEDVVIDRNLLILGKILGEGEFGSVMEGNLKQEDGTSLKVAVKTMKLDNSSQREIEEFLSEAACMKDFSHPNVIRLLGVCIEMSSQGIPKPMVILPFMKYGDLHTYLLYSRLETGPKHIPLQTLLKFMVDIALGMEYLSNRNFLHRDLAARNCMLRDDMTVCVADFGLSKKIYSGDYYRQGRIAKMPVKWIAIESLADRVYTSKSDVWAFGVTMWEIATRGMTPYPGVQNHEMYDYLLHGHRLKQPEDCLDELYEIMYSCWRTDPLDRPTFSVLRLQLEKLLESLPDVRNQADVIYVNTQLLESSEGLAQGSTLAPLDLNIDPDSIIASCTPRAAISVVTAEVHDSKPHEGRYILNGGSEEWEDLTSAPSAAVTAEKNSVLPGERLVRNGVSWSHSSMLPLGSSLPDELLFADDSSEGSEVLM

Row | SMILES | IC50 (phosphor-Axl) | IC50 (c-Mer) | IC50 (Tyro3)
1 | COC(=O)N1CCC(c2cc(-c3ccc(NC(=O)c4cccn(-c5ccc(F)cc5)c4=O)cc3)c3c(N)ncnn23)CC1 [Example 37, Methyl 4-{4-amino-5-[4-({[1-(4-fluorophenyl)-2-oxo-1,2-dihydropyridin-3-yl]carbonyl}amino)phenyl]pyrrolo[2,1-f][1,2,4]triazin-7-yl}piperidine-1-carboxylate] | ≤ 5 nM | ≤ 5 nM | 10 to 100 nM
2 | Nc1ncnn2c(C3CCN(CCO)CC3)cc(-c3ccc(NC(=O)c4cccn(-c5ccccc5)c4=O)cc3)c12 [Example 52, N-(4-{4-Amino-7-[1-(2-hydroxyethyl)piperidin-4-yl]pyrrolo[2,1-f][1,2,4]triazin-5-yl}phenyl)-2-oxo-1-phenyl-1,2-dihydropyridine-3-carboxamide] | ≤ 5 nM | ≤ 5 nM | 10 to 100 nM
3 | Cc1cc(C(=O)Nc2ccc(-c3cc(C4CCN(C(=O)C(C)C)CC4)n4ncnc(N)c34)cc2)c(=O)n(-c2cccnc2)c1C [Example 132, N-(4-(4-Amino-7-(1-isobutyrylpiperidin-4-yl)pyrrolo[2,1-f][1,2,4]triazin-5-yl)phenyl)-5,6-dimethyl-2-oxo-2H-[1,3′-bipyridine]-3-carboxamide] | ≤ 5 nM | ≤ 5 nM | > 100 nM
4 | CC(=O)N1CCC(c2cc(-c3ccc(NC(=O)c4cccn(-c5ccccc5)c4=O)cc3)c3c(N)ncnn23)CC1 [Example 24, N-{4-[7-(1-Acetylpiperidin-4-yl)-4-aminopyrrolo[2,1-f][1,2,4]triazin-5-yl]phenyl}-2-oxo-1-phenyl-1,2-dihydropyridine-3-carboxamide] | ≤ 5 nM | ≤ 5 nM | 10 to 100 nM
5 | Nc1ncnn2c(C3CCNCC3)cc(-c3ccc(NC(=O)c4cccn(-c5ccc(F)cc5)c4=O)cc3F)c12 [Example 35, N-[4-(4-Amino-7-piperidin-4-ylpyrrolo[2,1-f][1,2,4]triazin-5-yl)-3-fluorophenyl]-1-(4-fluorophenyl)-2-oxo-1,2-dihydropyridine-3-carboxamide] | ≤ 5 nM | ≤ 5 nM | 5 to 10 nM
6 | CC(C)C(=O)N1CCC(c2cc(-c3ccc(NC(=O)c4nn(C(C)C)c(=O)n(-c5ccccc5)c4=O)cc3)c3c(N)ncnn23)CC1 [Example 96, N-(4-(4-Amino-7-(1-isobutyrylpiperidin-4-yl)pyrrolo[1,2-f][1,2,4]triazin-5-yl)phenyl)-2-isopropyl-3,5-dioxo-4-phenyl-2,3,4,5-tetrahydro-1,2,4-triazine-6-carboxamide] | ≤ 5 nM | ≤ 5 nM | 10 to 100 nM
7 | Cc1c(Br)cc(C(=O)Nc2ccc(-c3cc(C4CCN(C(=O)C(C)C)CC4)n4ncnc(N)c34)cc2)c(=O)n1-c1cccnc1 [Example 130, N-(4-(4-Amino-7-(1-isobutyrylpiperidin-4-yl)pyrrolo[2,1-f][1,2,4]triazin-5-yl)phenyl)-5-bromo-6-methyl-2-oxo-2H-[1,3′-bipyridine]-3-carboxamide] | ≤ 5 nM | ≤ 5 nM | > 100 nM
8 | CC(=O)N1CCC(c2cc(-c3ccc(NC(=O)c4cccn(-c5ccc(F)cc5)c4=O)cc3F)c3c(N)ncnn23)CC1 [Example 27, N-{4-[7-(1-Acetylpiperidin-4-yl)-4-aminopyrrolo[2,1-f][1,2,4]triazin-5-yl]-3-fluorophenyl}-1-(4-fluorophenyl)-2-oxo-1,2-dihydropyridine-3-carboxamide] | ≤ 5 nM | ≤ 5 nM | 10 to 100 nM
9 | CC(C)n1cc(C(=O)Nc2ccc(-c3cc(C4CCC(N(C)C)CC4)n4ncnc(N)c34)cc2)c(=O)n(-c2ccccc2)c1=O (stereo not drawn) [Example 93, N-(4-(4-Amino-7-(4-(dimethylamino)cyclohexyl)pyrrolo[2,1-f][1,2,4]triazin-5-yl)phenyl)-1-isopropyl-2,4-dioxo-3-phenyl-1,2,3,4-tetrahydropyrimidine-5-carboxamide] | ≤ 5 nM | ≤ 5 nM | ≤ 5 nM
10 | CC(C)n1cc(C(=O)Nc2ccc(-c3cc(C4CCN(C(=O)N(C)C)CC4)n4ncnc(N)c34)cc2)c(=O)n(-c2ccccc2)c1=O [Example 61, N-(4-(4-Amino-7-(1-(dimethylcarbamoyl)piperidin-4-yl)pyrrolo[1,2-f][1,2,4]triazin-5-yl)phenyl)-1-isopropyl-2,4-dioxo-3-phenyl-1,2,3,4-tetrahydropyrimidine-5-carboxamide] | ≤ 5 nM | ≤ 5 nM | 10 to 100 nM
11 | CCn1cc(C(=O)Nc2ccc(-c3cc(C4CCN(C(=O)[C@@H](C)O)CC4)n4ncnc(N)c34)cc2)c(=O)n(-c2ccc(F)cc2)c1=O [Example 79, (R)—N-(4-(4-Amino-7-(1-(2-hydroxypropanoyl)piperidin-4-yl)pyrrolo[1,2-f][1,2,4]triazin-5-yl)phenyl)-1-ethyl-3-(4-fluorophenyl)-2,4-dioxo-1,2,3,4-tetrahydropyrimidine-5-carboxamide] | ≤ 5 nM | ≤ 5 nM | 10 to 100 nM
12 | Nc1ncnn2c(C3CCOCC3)cc(-c3ccc(NC(=O)c4cccn(-c5ccc(F)cc5)c4=O)cc3F)c12 [Example 16, N-{4-[4-Amino-7-(tetrahydro-2H-pyran-4-yl)pyrrolo[2,1-f][1,2,4]triazin-5-yl]-3-fluorophenyl}-1-(4-fluorophenyl)-2-oxo-1,2-dihydropyridine-3-carboxamide] | ≤ 5 nM | ≤ 5 nM | 10 to 100 nM
13 | Cc1c(-c2cncc(F)c2)c(=O)c(C(=O)Nc2ccc(-c3cc(C4CCN(C(=O)C(C)C)CC4)n4ncnc(N)c34)cc2)cn1C(C)C [Example 98, N-(4-(4-Amino-7-(1-isobutyrylpiperidin-4-yl)pyrrolo[2,1-f][1,2,4]triazin-5-yl)phenyl)-5′-fluoro-1-isopropyl-2-methyl-4-oxo-1,4-dihydro-[3,3′-bipyridine]-5-carboxamide] | ≤ 5 nM | ≤ 5 nM | 10 to 100 nM
14 | Cc1c(Br)cc(C(=O)Nc2ccc(-c3cc(C4CCN(C(=O)C(C)C)CC4)n4ncnc(N)c34)cc2)c(=O)n1-c1ccccn1 [Example 118, N-(4-(4-Amino-7-(1-isobutyrylpiperidin-4-yl)pyrrolo[2,1-f][1,2,4]triazin-5-yl)phenyl)-5-bromo-6-methyl-2-oxo-2H-[1,2′-bipyridine]-3-carboxamide] | ≤ 5 nM | ≤ 5 nM | > 100 nM
15 | Cc1c(Cl)cc(C(=O)Nc2ccc(-c3cc(C4CCN(C(=O)C(C)C)CC4)n4ncnc(N)c34)cc2)c(=O)n1-c1cccnc1 [Example 131, N-(4-(4-amino-7-(1-isobutyrylpiperidin-4-yl)pyrrolo[2,1-f][1,2,4]triazin-5-yl)phenyl)-5-chloro-6-methyl-2-oxo-2H-[1,3′-bipyridine]-3-carboxamide] | ≤ 5 nM | ≤ 5 nM | > 100 nM
16 | Nc1ncnn2c(C3CCNCC3)cc(-c3ccc(NC(=O)c4cccn(-c5ccccc5)c4=O)cc3F)c12 [Example 34, N-[4-(4-Amino-7-piperidin-4-ylpyrrolo[2,1-f][1,2,4]triazin-5-yl)-3-fluorophenyl]-2-oxo-1-phenyl-1,2-dihydropyridine-3-carboxamide] | ≤ 5 nM | ≤ 5 nM | 10 to 100 nM
17 | CCc1cc(-c2ccc(NC(=O)c3cccn([C@H](CC)CO)c3=O)cc2)c2c(N)ncnn12 [Example 4, N-[4-(4-Amino-7-ethylpyrrolo[2,1-f][1,2,4]triazin-5-yl)phenyl]-1-[(1R)-1-(hydroxymethyl)propyl]-2-oxo-1,2-dihydropyridine-3-carboxamide] | > 100 nM | > 100 nM | > 100 nM
18 | CC(C)C(=O)N1CCC(c2cc(-c3ccc(NC(=O)c4cn(C(C)C)c(=O)n(-c5ccccc5)c4=O)cc3F)c3c(N)ncnn23)CC1 [Example 75, N-(4-(4-Amino-7-(1-isobutyrylpiperidin-4-yl)pyrrolo[1,2-f][1,2,4]triazin-5-yl)-3-fluorophenyl)-1-isopropyl-2,4-dioxo-3-phenyl-1,2,3,4-tetrahydropyrimidine-5-carboxamide] | ≤ 5 nM | ≤ 5 nM | 10 to 100 nM
19 | Cc1c(-c2ccccn2)c(=O)c(C(=O)Nc2ccc(-c3cc(C4CCN(C(=O)C(C)C)CC4)n4ncnc(N)c34)cc2)cn1C1CC1 [Example 141, N-(4-(4-Amino-7-(1-isobutyrylpiperidin-4-yl)pyrrolo[2,1-f][1,2,4]triazin-5-yl)phenyl)-1′-cyclopropyl-2′-methyl-4′-oxo-1′,4′-dihydro-[2,3′-bipyridine]-5′-carboxamide] | ≤ 5 nM | ≤ 5 nM | > 100 nM
20 | Cc1c(Br)cc(C(=O)Nc2ccc(-c3cc(C4CCN(C(=O)C(C)C)CC4)n4ncnc(N)c34)cc2)c(=O)n1-c1cncc(F)c1 [Example 101, N-(4-(4-Amino-7-(1-isobutyrylpiperidin-4-yl)pyrrolo[1,2-f][1,2,4]triazin-5-yl)phenyl)-5-bromo-1-(5-fluoropyridin-3-yl)-6-methyl-2-oxo-1,2-dihydropyridine-3-carboxamide] | ≤ 5 nM | ≤ 5 nM | > 100 nM
21 | COCCN1CCC(c2cc(-c3ccc(NC(=O)c4cccn(-c5ccc(F)cc5)c4=O)cc3F)c3c(N)ncnn23)CC1 [Example 51, N-(4-{4-Amino-7-[1-(2-methoxyethyl)piperidin-4-yl]pyrrolo[2,1-f][1,2,4]triazin-5-yl}-3-fluorophenyl)-1-(4-fluorophenyl)-2-oxo-1,2-dihydropyridine-3-carboxamide] | ≤ 5 nM | ≤ 5 nM | 5 to 10 nM
